In DBAASP:
≈ marks a conversion by molar mass, not a printed value. Where “and” joins values, the source holds several entries; their conditions need not be identical. Equal values may be shown once.

Legend:
Assay in all cases: ≥ marks a high value that may be exact or a test limit, other limits are often not marked, values filed in µg/mL are converted to µM
[1] = tested on: Pseudomonas aeruginosa PAO1
[2] = tested on: Staphylococcus epidermidis ATCC 12228
Escherichia coli K99 = tested on: Escherichia coli K99
[3] = tested on: Candida parapsilosis CGMCC 2.3989
Escherichia coli K88 = tested on: Escherichia coli K88
[4] = tested on: Staphylococcus aureus ATCC 29213
[5] = tested on: Salmonella enterica subsp. enterica serovar Typhimurium C77-31
Escherichia coli UB1005 = tested on: Escherichia coli UB1005
[6] = tested on: Lacticaseibacillus rhamnosus 7469
[7] = tested on: Candida albicans CGMCC 2.2086
[8] = tested on: Candida tropicalis CGMCC 2.1975
[9] = tested on: Salmonella enterica subsp. enterica serovar Typhimurium ATCC 14028
[10] = tested on: Escherichia coli ATCC 25922
[11] = tested on: Staphylococcus aureus ATCC 25923
Escherichia coli 078 = tested on: Escherichia coli 078
[12] = tested on: Lactiplantibacillus plantarum 8014
Escherichia coli 987P = tested on: Escherichia coli 987P
[13] = tested on: Pseudomonas aeruginosa ATCC 27853
[14] = tested on: Staphylococcus aureus 710A
Escherichia coli ML-35 = tested on: Escherichia coli ML-35
Bacillus megaterium Bm11 = tested on: Bacillus megaterium Bm11
Bacillus subtilis 168 HT = tested on: Bacillus subtilis 168 HT
Escherichia coli MG1655 = tested on: Escherichia coli MG1655
[15] = tested on: Pseudomonas aeruginosa H744
[16] = tested on: Pseudomonas aeruginosa H374
[17] = tested on: Salmonella enterica subsp. enterica serovar Typhimurium ATCC 14028s
[18] = tested on: Pseudomonas aeruginosa K799
[19] = tested on: Pseudomonas aeruginosa H547
[20] = tested on: Pseudomonas aeruginosa Z61
[21] = tested on: Cronobacter sakazakii DSM 4485
[22] = tested on: Salmonella enterica subsp. enterica serovar Typhimurium LT2
[23] = tested on: Cronobacter sakazakii DPC 6440
[24] = tested on: Staphylococcus aureus NCTC 8325-4
[25] = tested on: Cronobacter muytjensii ATCC 51329
[26] = tested on: Cronobacter sakazakii ATCC BAA-894
[27] = tested on: Klebsiella pneumoniae NCIMB 13218
[28] = tested on: Staphylococcus aureus RN4220
[29] = tested on: Escherichia coli NCIMB 11843
[30] = tested on: Pseudomonas fluorescens NCIMB 9046
[31] = tested on: Staphylococcus aureus SA113
[32] = tested on: Staphylococcus aureus RF122
[33] = tested on: Staphylococcus aureus Newman
[34] = tested on: Pseudomonas aeruginosa ATCC 15692
[35] = tested on: Salmonella typhimurium KCTC 1926
[36] = tested on: Listeria monocytogenes KCTC 19111
[37] = tested on: Staphylococcus epidermidis KCTC 1917

Q: How did the MIC [1] turn out when CC[C@H](C)[C@H](N)C(=O)N[C@@H](Cc1cnc[nH]1)C(=O)N[C@@H](Cc1cnc[nH]1)C(=O)N[C@H](C(=O)N[C@@H](Cc1cnc[nH]1)C(=O)N[C@@H](Cc1cnc[nH]1)C(=O)N[C@@H](Cc1cnc[nH]1)C(=O)N[C@H](C(=O)N[C@@H](Cc1cnc[nH]1)C(=O)N[C@@H](Cc1cnc[nH]1)C(=O)N[C@H](C(=O)N[C@@H](Cc1cnc[nH]1)C(=O)N[C@@H](Cc1cnc[nH]1)C(=O)N[C@@H](Cc1cnc[nH]1)C(N)=O)[C@@H](C)CC)[C@@H](C)CC)[C@@H](C)CC [IHHIHHHIHHIHHH] was run?
A: 64 µM (≈ 118 µg/mL)

Q: What about the MIC [2] of the same molecule?
A: > 64 µM

Q: What about the MIC (Escherichia coli K99) of the same molecule?
A: ≥ 64 µM

Q: What about the MIC [3] of the same molecule?
A: 2 µM (≈ 3.68 µg/mL)

Q: And the MIC (Escherichia coli K88)?
A: ≥ 64 µM

Q: And the MIC [4]?
A: > 64 µM

Q: And the MIC [5]?
A: ≥ 64 µM

Q: And the MIC (Escherichia coli UB1005)?
A: ≥ 64 µM

Q: What about the MIC [6] of the same molecule?
A: ≥ 64 µM

Q: What about the MIC [7] of the same molecule?
A: 16 µM (≈ 29.5 µg/mL)

Q: What about the MIC [8] of the same molecule?
A: 1 µM (≈ 1.84 µg/mL)

Q: And the MIC [9]?
A: > 64 µM

Q: And the MIC [10]?
A: 64 µM and > 32 µM

Q: What about the MIC [11] of the same molecule?
A: > 64 µM

Q: And the MIC (Escherichia coli 078)?
A: ≥ 64 µM

Q: What about the MIC [12] of the same molecule?
A: ≥ 64 µM

Q: And the MIC (Escherichia coli 987P)?
A: ≥ 64 µM

Q: Which MIC [13] does the source give for CC[C@H](C)[C@H](NC(=O)[C@H](CCCCN)NC(=O)[C@H](CCCCN)NC(=O)[C@H](CC(C)C)NC(=O)[C@H](CC(C)C)NC(=O)CN)C(=O)NCC(=O)N[C@@H](CCCCN)C(=O)N[C@@H](CCCCN)C(=O)N[C@@H](C)C(=O)N[C@@H](CCCCN)C(=O)N[C@@H](CCCCN)C(=O)N[C@@H](C)C(=O)N[C@@H](CC(C)C)C(=O)N[C@@H](CCCCN)C(=O)N[C@@H](CCCCN)C(=O)N[C@@H](CC(C)C)C(=O)NCC(=O)N[C@@H](Cc1ccc(O)cc1)C(N)=O [GLLKKIGKKAKKALKKLGY] here?
A: 0.5 µM (≈ 1.04 µg/mL)

Q: And the MIC [14]?
A: 2 µM (≈ 4.17 µg/mL)

Q: And the MIC [9]?
A: 2 µM (≈ 4.17 µg/mL)

Q: What about the MIC (Escherichia coli ML-35) of the same molecule?
A: 0.5 µM (≈ 1.04 µg/mL)

Q: And the MIC (Bacillus megaterium Bm11)?
A: 2 µM (≈ 4.17 µg/mL)

Q: For CC[C@H](C)[C@H](NC(=O)CNC(=O)[C@H](C)NC(=O)[C@H](Cc1cnc[nH]1)NC(=O)[C@@H](NC(=O)[C@H](CCCCN)NC(=O)[C@H](Cc1ccc(O)cc1)NC(=O)[C@@H]1CCCN1C(=O)[C@@H](NC(=O)[C@H](CC(C)C)NC(=O)[C@H](CCCCN)NC(=O)[C@H](CCCCN)NC(=O)[C@@H](N)Cc1c[nH]c2ccccc12)C(C)C)[C@@H](C)CC)C(=O)O [WKKLVPYKIHAGI], which MIC (Bacillus subtilis 168 HT) is on record?
A: ≥ 82 µM

Q: And the MIC (Escherichia coli MG1655)?
A: ≥ 82 µM

Q: Which MIC [15] does the source give for CC(C)[C@H](NC(=O)[C@H](CO)NC(=O)[C@H](CC(N)=O)NC(=O)[C@H](CC(=O)O)NC(=O)[C@H](Cc1ccccc1)NC(=O)[C@H](CO)NC(=O)CNC(=O)[C@@H](NC(=O)[C@H](CCC(N)=O)NC(=O)[C@H](CCCCN)NC(=O)[C@H](Cc1ccccc1)NC(=O)[C@H](Cc1ccccc1)NC(=O)[C@H](CO)NC(=O)[C@H](CCCCN)NC(=O)[C@H](CCCN=C(N)N)NC(=O)[C@H](Cc1c[nH]c2ccccc12)NC(=O)[C@H](CCCCN)NC(=O)[C@@H](N)CCCCN)C(C)C)C(=O)O [KKWRKSFFKQVGSFDNSV] here?
A: 29.2 µM (≈ 64 µg/mL)

Q: And the MIC [16]?
A: 29.2 µM (≈ 64 µg/mL)

Q: What about the MIC (Escherichia coli UB1005) of the same molecule?
A: 29.2 µM (≈ 64 µg/mL)

Q: What about the MIC [17] of the same molecule?
A: 29.2 µM (≈ 64 µg/mL)

Q: What about the MIC [18] of the same molecule?
A: 29.2 µM (≈ 64 µg/mL)

Q: What about the MIC [19] of the same molecule?
A: 29.2 µM (≈ 64 µg/mL)

Q: And the MIC [20]?
A: 29.2 µM (≈ 64 µg/mL)

Q: How did the MIC (Bacillus subtilis 168 HT) turn out when CC[C@H](C)[C@H](NC(=O)[C@@H](N)CC(C)C)C(=O)N[C@H](C(=O)N[C@@H](CC(C)C)C(=O)N[C@H](C(=O)N[C@@H](CS)C(=O)N[C@@H](CCCN=C(N)N)C(=O)N[C@@H](CCCCN)C(=O)N[C@@H](CCCCN)C(=O)N[C@@H](CCCCN)C(=O)N[C@@H](CCCCN)C(=O)N1CCC[C@H]1C(=O)N[C@@H](Cc1ccccc1)C(=O)O)[C@@H](C)O)C(C)C [LIVLTCRKKKKPF] was run?
A: ≥ 40.7 µM

Q: What about the MIC (Escherichia coli MG1655) of the same molecule?
A: ≥ 81 µM

Q: Which MIC [21] does the source give for CC[C@H](C)[C@H](N)C(=O)N[C@@H](C)C(=O)N[C@@H](Cc1cnc[nH]1)C(=O)N[C@@H](CCC(N)=O)C(=O)NCC(=O)N[C@@H](CC(C)C)C(=O)N1CCC[C@H]1C(=O)N[C@@H](CCC(N)=O)C(=O)N[C@@H](CCC(=O)O)C(=O)O [IAHQGLPQE] here?
A: ≥ 2500 µM

Q: And the MIC [22]?
A: ≥ 1250 µM

Q: And the MIC [23]?
A: ≥ 312 µM

Q: What about the MIC [24] of the same molecule?
A: ≥ 1250 µM

Q: And the MIC [25]?
A: ≥ 2500 µM

Q: And the MIC [26]?
A: ≥ 2500 µM

Q: And the MIC [27]?
A: ≥ 1250 µM

Q: What about the MIC [28] of the same molecule?
A: ≥ 1250 µM

Q: What about the MIC [29] of the same molecule?
A: ≥ 1250 µM

Q: What about the MIC [30] of the same molecule?
A: ≥ 1250 µM

Q: And the MIC [31]?
A: ≥ 1250 µM

Q: And the MIC [32]?
A: ≥ 1250 µM

Q: What about the MIC [33] of the same molecule?
A: ≥ 1250 µM

Q: With CC[C@H](C)[C@H](NC(=O)[C@H](CCCCN)NC(=O)[C@H](CCCCN)NC(=O)[C@H](CC(C)C)NC(=O)[C@H](CC(C)C)NC(=O)CN)C(=O)N[C@@H](C)C(=O)N[C@@H](CCCCN)C(=O)N[C@@H](CCCCN)C(=O)N[C@@H](C)C(=O)N[C@@H](CCCCN)C(=O)N[C@@H](CCCCN)C(=O)N[C@@H](C)C(=O)NCC(=O)N[C@@H](CCCCN)C(=O)N[C@@H](CCCCN)C(=O)N[C@@H](CC(C)C)C(=O)NCC(=O)N[C@@H](Cc1ccc(O)cc1)C(N)=O [GLLKKIAKKAKKAGKKLGY] as the molecule, how does the MIC [13] read?
A: 8 µM (≈ 16.3 µg/mL)

Q: What about the MIC [14] of the same molecule?
A: ≥ 32 µM

Q: And the MIC [9]?
A: > 32 µM

Q: And the MIC (Escherichia coli ML-35)?
A: 4 µM (≈ 8.17 µg/mL)

Q: What about the MIC (Bacillus megaterium Bm11) of the same molecule?
A: ≥ 32 µM

Q: With CC(C)[C@H](NC(=O)[C@H](Cc1c[nH]c2ccccc12)NC(=O)[C@H](CCCCN)NC(=O)[C@H](CCCCN)NC(=O)[C@@H](NC(=O)[C@H](Cc1c[nH]c2ccccc12)NC(=O)[C@H](CCCCN)NC(=O)[C@H](CCCCN)NC(=O)[C@@H](NC(=O)[C@H](Cc1c[nH]c2ccccc12)NC(=O)[C@@H](N)CCCCN)C(C)C)C(C)C)C(=O)N[C@@H](CCCCN)C(N)=O [KWVKKWVKKWVK] as the molecule, how does the MIC [34] read?
A: 4 µM (≈ 6.57 µg/mL)

Q: And the MIC [35]?
A: 2 µM (≈ 3.28 µg/mL)

Q: And the MIC [36]?
A: 4 µM (≈ 6.57 µg/mL)

Q: What about the MIC [37] of the same molecule?
A: 4 µM (≈ 6.57 µg/mL)

Q: What about the MIC [10] of the same molecule?
A: 1 µM (≈ 1.64 µg/mL)

Q: And the MIC [11]?
A: 16 µM (≈ 26.3 µg/mL)
